Reference: patent US20240254132A1, “COMPOUNDS, COMPOSITIONS AND METHODS” (Denali Therapeutics Inc., priority 2021, published 2024)

System: IL-1β secretion, THP-1 cells
Assay: IL-1β secretion assay in PMA-differentiated THP-1 cells (LPS + nigericin stimulation, IL-1β ELISA)
Format: cell-based
Settings: Homo sapiens, LPS 25 ng/mL, IL-1β by ELISA
Method: Compounds as provided herein were tested in the following assay. Cell culture medium employed contained RPMI 1640 medium (89%), FBS (10%), Pen/Strep (1%), and 2-mercaptoethanol (0.05 mm). Freezing medium was made up of 90% FBS and 10% DMSO. THP-1 cells were removed from the liquid nitrogen and placed into a 37° C. water bath to thaw, until signs of ice dissipated. The cells were then added to 9 mL of warm cell culture medium and centrifuged for 5 minutes at 1000 rpm. The supernatant was discarded, and the cells were resuspended in new cell culture medium. THP-1 cells were then split and cultured in the cell culture medium, being passaged every 2-3 days with the cell density will be maintained between 5×10^5 and 1.5×10^6 viable cells/mL.
Procedure for […], Secretion Assay in 384-Well Plates
PMA was dissolved in DMSO to make a stock solution at 5 mg/mL and stored in 10 μl aliquots at −20° C. for single use. PMA is added to normal growth medium. LPS was diluted with 1 mL of water solution to provide a 1 mg/mL stock solution and stored in 15 μl aliquots at −20° C. for single use. Nigericin is diluted in ice cold 100% ethanol to 5 mg/mL (6.7 mM) and stored in 75 μL aliquots at −20° C. for single use. Serum-free media contains RPMI 1640 medium (99%), Pen/Strep (1%), and 2-mercaptoethanol (0.05 mM). The two control conditions used to qualify and normalize test compound dose-response curves were as follows: High Control=25 ng/mL LPS, 5 μM Nigericin, 0.5% DMSO, Low Control=25 ng/mL, LPS, 0.5% DMSO.
THP-1 cells were diluted to provide a suspension at a concentration of 1.0×10^6 cells/mL with the total volume of suspension required to enable the desired number of assay plates. The growth media was supplemented with PMA (5 ng/mL final concentration) and the cells were incubated at 37° C. under a humidified atmosphere of 5% CO2 for 40 h.
All media was carefully aspirated from each culture flask. The cells were washed carefully with 1×DPBS. The cells were then briefly digested with trypsin LE for 5 minutes at 23° C. and immediately resuspended in cell growth media. After resuspension, the cells were centrifuged at 1000 rpm for 3 minutes and the supernatant was discarded. The cells were resuspended in DPBS and once again centrifuged at 1000 rpm for 5 minutes. The supernatant was discarded and the cell pellet was resuspended in serum-free media supplemented with LPS (25 ng/mL final concentration) to enable the distribution of 30K THP-1 cells within 45 μL of media into each well of 384-well PDL-coated plates. The 384-well plates were then incubated at 37° C. under a humidified atmosphere of 5% CO2 for 2 h. Following this period, test compounds were dispensed by Tecan across the desired concentration range with all wells normalized to a final 0.5% DMSO concentration. The plates were then incubated at 37° C. under a humidified atmosphere of 5% CO2 for 1 h. Following this period, 5 μL of the 5 mg/mL nigericin stock solution was added to each of the appropriate wells and plates were centrifuged at 1000 rpm for 30 seconds. The plates were the immediately reintroduced to the incubator at 37° C. under a humidified atmosphere of 5% CO2 for 2 h. After this time, 35 μL/well of supernatant was collected and transferred into v-bottom plate and centrifuged at 1000 rpm for 1 minute. These supernatant aliquots were analyzed using an IL-Iβ detection kit as described below. If needed, the test samples could be snap frozen and stored at −80° C. until analyzed.
To prepare each ELISA plate, capture antibody (mAb Mt175) was diluted with PBS to a final concentration of 2 μg/mL and then 20 μL of this solution was added to each well of the ELISA plate. Each plate was allowed to incubate overnight at 4° C. The next day, the capture antibody solution was removed and discarded. Each ELISA plate was washed 4 times with PBST followed by the addition of 25 μL/well of blocking buffer (Licor-927-40010) supplemented with 0.1% Tween 20. […]

O=C(CN1C(=O)c2ccc(Br)cc2C2(CC2)C1=O)Nc1ncc(F)cn1 [Example 33, 2-(6′-bromo-1′,3′-dioxospiro[cyclopropane-1,4′-isoquinoline]-2′-yl)-N-(5-fluoropyrimidin-2-yl)acetamide]
IC50 (THP-1, class symbol): < 10 µM
IC50 (THP-1, numeric value): 0.184 µM
